{"source": "ChEMBL document CHEMBL4184243", "about": "“Optimization of antimalarial, and anticancer activities of (E)-methyl 2-(7-chloroquinolin-4-ylthio)-3-(4-hydroxyphenyl) acrylate” (Bioorg Med Chem, 2018)", "key": {"Jurkat E6.1 [1]": {"system": "Jurkat E6.1", "experiment": "Induction of apoptosis in human Jurkat E6-1 cells assessed as necrotic cells at 5 uM after 24 hrs by Annexin-V-FITC/propidium iodide staining based flow cytometric analysis (reference value: 1.26 +/- 0.24 %)", "assay_type": "functional"}, "[2]": {"experiment": "Inhibition of beta-hematin formation assessed as reduction in acetate buffer-initiated hemozoin formation measured after 48 hrs", "parameters": "concentration or dose not given beside the values", "settings": "concentration not given here"}, "Jurkat E6.1 [3]": {"system": "Jurkat E6.1", "experiment": "Induction of apoptosis in human Jurkat E6-1 cells assessed as early apoptotic cells at 5 uM after 24 hrs by Annexin-V-FITC/propidium iodide staining based flow cytometric analysis (reference value: 0.5 +/- 0.07 %)", "assay_type": "functional"}, "[4]": {"experiment": "Safety index, ratio of test compound IC50 to doxorubicin IC50 for human lymphocytes", "assay_type": "ADME, cell-based, Lymphocyte", "settings": "read-out: Ratio IC50"}, "HL-60 [5]": {"system": "HL-60", "experiment": "Induction of apoptosis in human HL60 cells assessed as late apoptotic cells at 5 uM after 24 hrs by Annexin-V-FITC/propidium iodide staining based flow cytometric analysis (reference value: 0.85 +/- 0.13 %)", "assay_type": "functional"}, "Lymphocyte": {"system": "Lymphocyte", "experiment": "Cytotoxicity against human lymphocytes after 24 to 48 hrs by MTT assay", "assay_type": "cell-based"}, "[6]": {"experiment": "Selectivity index, ratio of IC50 for human lymphocytes to IC50 for human Jurkat E6-1 cells", "assay_type": "toxicity", "settings": "human lymphocytes versus Jurkat E6-1 cells, read-out: Ratio IC50"}, "Jurkat E6.1 [7]": {"system": "Jurkat E6.1", "experiment": "Cytotoxicity against human Jurkat E6-1 cells after 24 hrs by MTT assay", "assay_type": "functional, cell-based", "settings": "Jurkat E6.1, 24 h"}, "HL-60 [8]": {"system": "HL-60", "experiment": "Induction of apoptosis in human HL60 cells assessed as early apoptotic cells at 5 uM after 24 hrs by Annexin-V-FITC/propidium iodide staining based flow cytometric analysis (reference value: 0.36 +/- 0.02 %)", "assay_type": "functional"}, "Mus musculus [9]": {"system": "Mus musculus", "experiment": "Toxicity in Balb-C mouse infected with chloroquine-susceptible Plasmodium berghei ANKA assessed as effect on body weight at 20 mg/kg, ip administered once daily for 4 days measured at 30 days post infection", "assay_type": "organism-based", "settings": "in vivo, 720 h"}, "HL-60 [10]": {"system": "HL-60", "experiment": "Cytotoxicity against human HL60 cells after 24 hrs by MTT assay", "assay_type": "functional, cell-based", "settings": "HL-60, 24 h"}, "HL-60 [11]": {"system": "HL-60", "experiment": "Induction of apoptosis in human HL60 cells assessed as necrotic cells at 5 uM after 24 hrs by Annexin-V-FITC/propidium iodide staining based flow cytometric analysis (reference value: 1.96 +/- 0.33 %)", "assay_type": "functional"}, "Plasmodium berghei [12]": {"system": "Plasmodium berghei", "experiment": "Antimalarial activity against chloroquine-susceptible Plasmodium berghei ANKA infected in Balb-C mouse assessed as parasitemia at 10 mg/kg, ip administered once daily for 4 days measured post last dose by Giemsa staining based method (reference value: 65.8 +/- 4.38%)", "assay_type": "functional"}, "Jurkat E6.1 [13]": {"system": "Jurkat E6.1", "experiment": "Induction of apoptosis in human Jurkat E6-1 cells assessed as late apoptotic cells at 5 uM after 24 hrs by Annexin-V-FITC/propidium iodide staining based flow cytometric analysis (reference value: 0.73 +/- 0.14 %)", "assay_type": "functional"}, "Plasmodium berghei [14]": {"system": "Plasmodium berghei", "experiment": "Antimalarial activity against chloroquine-susceptible Plasmodium berghei ANKA infected in Balb-C mouse assessed as mean survival days at 10 mg/kg, ip administered once daily for 4 days (reference value: 8.4 +/- 0.15 day)", "assay_type": "functional"}, "Mus musculus [15]": {"system": "Mus musculus", "experiment": "Toxicity in Balb-C mouse infected with chloroquine-susceptible Plasmodium berghei ANKA assessed as survival at 20 mg/kg, ip administered once daily for 4 days measured at 30 days post infection", "assay_type": "organism-based", "settings": "in vivo, 720 h"}, "[16]": {"experiment": "Selectivity index, ratio of IC50 for human lymphocytes to IC50 for human HL60 cells", "assay_type": "toxicity", "settings": "human lymphocytes versus HL60 cells, read-out: Ratio IC50"}}, "data": [{"smiles": "COC(=O)/C(=C\\c1ccc(OC(=O)c2ccc(OC)c(OC)c2OC)cc1)Sc1ccnc2cc(Cl)ccc12", "values": [{"measurement": "Activity", "setting": "Jurkat E6.1 [1]", "result": 55.6, "unit": "%"}, {"measurement": "inhibition", "setting": "[2]", "result": 85.1, "unit": "%"}, {"measurement": "Activity", "setting": "Jurkat E6.1 [3]", "result": 0.58, "unit": "%"}, {"measurement": "selectivity ratio", "setting": "[4]", "result": 5.1}, {"measurement": "Activity", "setting": "HL-60 [5]", "result": 7.38, "unit": "%"}, {"measurement": "IC50", "setting": "Lymphocyte", "result": 22400, "unit": "nM"}, {"measurement": "selectivity ratio", "setting": "[6]", "result": 9.27}, {"measurement": "IC50", "setting": "Jurkat E6.1 [7]", "result": 2410, "unit": "nM"}, {"measurement": "Activity", "setting": "HL-60 [8]", "result": 0.75, "unit": "%"}, {"measurement": "Activity", "setting": "Mus musculus [9]", "result": "Non-Toxic"}, {"measurement": "IC50", "setting": "HL-60 [10]", "result": 2080, "unit": "nM"}, {"measurement": "Activity", "setting": "HL-60 [11]", "result": 62.1, "unit": "%"}, {"measurement": "Activity", "setting": "Plasmodium berghei [12]", "result": 1, "unit": "%"}, {"measurement": "Activity", "setting": "Jurkat E6.1 [13]", "result": 4.12, "unit": "%"}, {"measurement": "MSD", "setting": "Plasmodium berghei [14]", "result": 29.83, "unit": "days"}, {"measurement": "Activity", "setting": "Mus musculus [15]", "result": "Non-Toxic"}, {"measurement": "selectivity ratio", "setting": "[16]", "result": 10.8}]}]}
